In patent US7119180B2, “2-halogenated derivatives of 5-O-desosaminyl-erythronolide A, their preparation process and their antibiotic use” (Aventis Pharma S.A., priority 1998, dated 2006):

Tests used:
Type in all cases: cell-based
[1] = tested on: Haemophilus Influenzae 351CA1; experiment: Activity on Gram- bacterial strains
Experimental: (§1) Method of Dilutions in Liquid Medium
(§2) A series of tubes were prepared in which the same quantity of nutritive sterile medium was distributed. Increasing quantities of the product to be studied were distributed into each tube and then each tube was seeded with a bacterial strain. After incubation for twenty-four hours in an oven at 37° C., the growth inhibition was evaluated by transillumination, which allowed the minimal inhibitory concentrations (M.I.C.) to be determined, expressed in micrograms/ml.

[2] = tested on: Haemophilus Influenzae 351CB12; experiment: Activity on Gram- bacterial strains
Experimental: as §1, §2

[3] = tested on: Haemophilus Influenzae 351HT3; experiment: Activity on Gram- bacterial strains
Experimental: as §1, §2

[4] = tested on: Streptococcus gr. G 02GOGR5; experiment: Method of dilutions in liquid medium (M.I.C.); conditions: reading after 24 hours, 37° C.
Experimental: as §2, with “Method of Dilutions in Liquid Medium A series” for “A series”, “in micrograms/ml. The following results were obtained: (reading after 24 hours)” for “in micrograms/ml.”

[5] = tested on: S. epidermidis 012GO11I; experiment: Method of dilutions in liquid medium (M.I.C.); conditions: reading after 24 hours, 37° C.
Experimental: as §2, with “Method of Dilutions in Liquid Medium A series” for “A series”, “in micrograms/ml. The following results were obtained: (reading after 24 hours)” for “in micrograms/ml.”

[6] = tested on: S. pyogenes 02A1UC1; experiment: Method of dilutions in liquid medium (M.I.C.); conditions: reading after 24 hours, 37° C.
Experimental: as §2, with “Method of Dilutions in Liquid Medium A series” for “A series”, “in micrograms/ml. The following results were obtained: (reading after 24 hours)” for “in micrograms/ml.”

[7] = tested on: S. agalactiae 02B1SJ1c; experiment: Method of dilutions in liquid medium (M.I.C.); conditions: reading after 24 hours, 37° C.
Experimental: as §2, with “Method of Dilutions in Liquid Medium A series” for “A series”, “in micrograms/ml. The following results were obtained: (reading after 24 hours)” for “in micrograms/ml.”

[8] = tested on: S. mitis 02MitCB1; experiment: Method of dilutions in liquid medium (M.I.C.); conditions: reading after 24 hours, 37° C.
Experimental: as §2, with “Method of Dilutions in Liquid Medium A series” for “A series”, “in micrograms/ml. The following results were obtained: (reading after 24 hours)” for “in micrograms/ml.”

[9] = tested on: S. faecalis 02D2UC1; experiment: Method of dilutions in liquid medium (M.I.C.); conditions: reading after 24 hours, 37° C.
Experimental: as §2, with “Method of Dilutions in Liquid Medium A series” for “A series”, “in micrograms/ml. The following results were obtained: (reading after 24 hours)” for “in micrograms/ml.”

[10] = tested on: S. pneumoniae 030GR20; experiment: Method of dilutions in liquid medium (M.I.C.); conditions: reading after 24 hours, 37° C.
Experimental: as §2, with “Method of Dilutions in Liquid Medium A series” for “A series”, “in micrograms/ml. The following results were obtained: (reading after 24 hours)” for “in micrograms/ml.”

[11] = tested on: S. agalactiae 02B1HT1; experiment: Method of dilutions in liquid medium (M.I.C.); conditions: reading after 24 hours, 37° C.
Experimental: as §2, with “Method of Dilutions in Liquid Medium A series” for “A series”, “in micrograms/ml. The following results were obtained: (reading after 24 hours)” for “in micrograms/ml.”

[12] = tested on: S. aureus 011GO25I; experiment: Method of dilutions in liquid medium (M.I.C.); conditions: reading after 24 hours, 37° C.
Experimental: as §2, with “Method of Dilutions in Liquid Medium A series” for “A series”, “in micrograms/ml. The following results were obtained: (reading after 24 hours)” for “in micrograms/ml.”

[13] = tested on: S. pneumoniae 032UC1; experiment: Method of dilutions in liquid medium (M.I.C.); conditions: reading after 24 hours, 37° C.
Experimental: as §2, with “Method of Dilutions in Liquid Medium A series” for “A series”, “in micrograms/ml. The following results were obtained: (reading after 24 hours)” for “in micrograms/ml.”

[14] = tested on: S. aureus 011UC4; experiment: Method of dilutions in liquid medium (M.I.C.); conditions: reading after 24 hours, 37° C.
Experimental: as §2, with “Method of Dilutions in Liquid Medium A series” for “A series”, “in micrograms/ml. The following results were obtained: (reading after 24 hours)” for “in micrograms/ml.”

[15] = tested on: S. faecium 02D3HT1; experiment: Method of dilutions in liquid medium (M.I.C.); conditions: reading after 24 hours, 37° C.
Experimental: as §2, with “Method of Dilutions in Liquid Medium A series” for “A series”, “in micrograms/ml. The following results were obtained: (reading after 24 hours)” for “in micrograms/ml.”

Row | Compound | activity on Gram- bacterial strain [1] | activity on Gram- bacterial strain [2] | activity on Gram- bacterial strain [3] | minimal inhibitory concentrations (M.I.C.) [4] [micrograms/ml] | minimal inhibitory concentrations (M.I.C.) [5] [micrograms/ml] | minimal inhibitory concentrations (M.I.C.) [6] | minimal inhibitory concentrations (M.I.C.) [7] [micrograms/ml] | minimal inhibitory concentrations (M.I.C.) [8] [micrograms/ml] | minimal inhibitory concentrations (M.I.C.) [9] [micrograms/ml] | minimal inhibitory concentrations (M.I.C.) [10] | minimal inhibitory concentrations (M.I.C.) [11] | minimal inhibitory concentrations (M.I.C.) [12] [micrograms/ml] | minimal inhibitory concentrations (M.I.C.) [13] [micrograms/ml] | minimal inhibitory concentrations (M.I.C.) ([14]; S. aureus 011UC4 + 50% serum) [micrograms/ml] | minimal inhibitory concentrations (M.I.C.) ([14]; S. aureus 011UC4) [micrograms/ml] | minimal inhibitory concentrations (M.I.C.) [15]
1 | CC[C@H]1OC(=O)[C@@](C)(F)C(=O)[C@H](C)[C@@H](O[C@@H]2O[C@H](C)C[C@H](N(C)C)[C@H]2O)[C@](C)(OC)C[C@@H](C)C2=NCCN3C(=O)O[C@@]1(C)[C@H]3[C@H]2C (relative stereo) [Example 1, [3 as-(3aR*,4S*,7R*,9S*,10S*,11S*,13S*,15S*,15aS*)]-4-ethyl-7-fluoro-3a,4,10,11,12,13,15,15a-octahydro-11-methoxy-3a,7,9,11,13,15-hexamethyl-10-[[3,4,6-trideoxy-3-(dimethyl-amino)-beta-D-xylo-hexopyranosyl]oxy]-14,1-(nitriloethano)-2H-oxacyclotetradecino[4,3-d]oxazole-2,6,8(9H)-trione] | useful activity | useful activity | useful activity | 0.040 | 0.300 | 0.040 micrograms/ml | 1.200 | 0.040 | 0.040 | # 0.02 micrograms/ml | # 0.02 micrograms/ml | 0.600 | 0.080 | 0.040 | 0.150 | # 0.02 micrograms/ml
2 | (3aS,4R,7S,9R,10R,11R,13R,15R,15aR,18S)-4-ethyl-7-fluoro-3a,4,10,11,12,13,15,15a-octahydro-18-(hydroxymethyl)-11-methoxy-3a,7,9,11,13,15-hexamethyl-10-[[3,4,6-trideoxy-3-(dimethylamino)-beta-D-xylo-hexopyranosyl]oxy]-14,1-(nitriloethano)-2H-oxacyclotetradecino[4,3-d]oxazole-2,6,8(7H,9H)-trione [Example 3] |  |  |  | 0.02 | 0.150 | # 0.02 micrograms/ml | 0.02 | 0.02 | 0.02 | 0.02 micrograms/ml | 0.02 micrograms/ml | 0.040 | 0.02 | 0.040 | 0.040 | 0.02 micrograms/ml
